Values quoted from earlier work as cited in US20170232026A1, “PHARMACEUTICAL COMPOSITION IN […] FOR VETERINARY USE AS A PROMOTER SYSTEM AND BIO-ADHESIVE IN ANT[…], AND METHOD FOR THE PRODUCTION THEREOF” (UNIVERSIDAD NACIONAL AUTONOMA DE MEXICO, priority 2014, published 2017).

In the case of `CC[C@H](C)[C@H]1O[C@]2(CC[C@@H]1C)C[C@@H]1C[C@@H](C/C=C(\C)[C@@H](O[C@H]3C[C@H](OC)[C@@H](O[C@H]4C[C@H](OC)[C@@H](O)[C@H](C)O4)[C@H](C)O3)[C@@H](C)/C=C/C=C3\CO[C@@H]4[C@H](O)C(C)=C[C@@H](C(=O)O1)[C@]34O)O2` [Ivermectin, 22, 23-dihydroavermectin B1a], the “solubility in ethanol at 95%” value (ethanol at 95%) is listed as “soluble”, the solubility in methanol (methanol) is listed as “soluble” and the solubility in water (water) is listed as “insoluble”.
